A short description of the assay: Rab7 GTP binding inhibition, two preparations – biochemical, Rab7 wildtype, bead flow cytometry, two protein sources, mechanism study, late-stage follow-up (AID 720689). The settings on record: GST-Rab7 beads, Bodipy-FL-GTP binding. In general terms: A flow cytometer gives signals particle by particle.

Molecules are shown by their SMILES.

The EC50 is the concentration needed to bring the measured effect to its halfway point.

In the case of `CC1(C)Cc2c(sc(NC(=S)NC(=O)c3cccc(N=[N+]=[N-])c3)c2C(=O)O)CO1`, the half-maximal effective concentration (EC50) reads like this: (protein source 1) 1260 nM; (protein source 2) 1240 nM.

On to `CC1(C)Cc2c(sc(NC(=S)NC(=O)c3ccc(N=[N+]=[N-])cc3)c2C(=O)O)CO1`, for which the EC50 is 219 nM (protein source 1) and 205 nM (protein source 2).

(Values after PubChem BioAssay AID720689 (NMMLSC, 2013).)
